Reference: US7635720B2, “Prostaglandin analog compositions to treat epithelial-related conditions” (Meta Cosmetics, LLC, priority 2007, dated 2009)
Values joined by “and” are separate entries in the source; they are usually repeats but may differ in a detail not shown here. Equal entries are not always repeated. “Also recorded” adds a separate entry of the source.

Tests used:
[1] = Bovine cornea hydrolysis assay; format: in vitro ADME; details: for % Hydrolyzed after 12 hr (negative control): PBS pH 7.4 only, no cornea, 37° C.; for % Hydrolyzed after 12 hr, Avg: average of cornea samples 1-3; for % Hydrolyzed after 12 hr: one bovine cornea in 10 ml PBS pH 7.4, 37° C., 250 μg compound, individual cornea samples 1-3
Description: A bovine cornea hydrolysis test system (K. M. Maxey, et al., “The Hydrolysis of Bimatoprost in Corneal Tissue Generates a Potential Prostanoid FP Receptor Agonist,” Survey of Ophthalmology, 47 (Suppl 1):S34-40 (2002)) has been used to determine whether four test compounds of the present invention, namely 16-phenoxy PGF2α cyclopropyl amide; 17-phenyl trinor PGF2α cyclopropyl amide; 16-phenoxy PGF2α cyclopropyl methyl amide; and 17-phenyl trinor PGF2α cyclopropyl methyl amide, react similarly to bimatoprost in this test system.
Bovine corneas are excised within 1-2 hour of death. For each compound tested, one cornea (0.6 g) is placed into an 18 mm×150 mm glass test tube containing 10 ml of phosphate-buffered saline (“PBS”) at pH 7.4. The compound of interest (250 μg in about 120 μl ethanol) is added to each test tube containing a cornea and to a tube containing only 10 ml of PBS (no cornea), which served as a negative control. Test tubes are covered with parafilm and incubated at 37° C. with shaking.
After the first time point, a 5 ml aliquot is removed from each test tube and transferred into another marked test tube. The remaining material continues to incubate at 37° C. until subsequent test time point(s) is/are reached. For each test tube, 1.0 ml of 5% KHSO4 is added to bring the pH down to about 3 and sufficient NaCl is added to saturate the solution; the solution then is extracted three times with 80% ethyl acetate-hexane. The solvent is evaporated under nitrogen, dissolved in 200 μl of 80% ethyl acetate-hexane, and the 200 μl sample then transferred to a 2 ml screw cap vial. Samples are stored at −20° C. until run on an HPLC column.
After the second time point, the cornea is removed from each experimental test tube. For each test tube, 1.0 ml of 5% KHSO4 is added to bring the pH down to about 3 and sufficient NaCl added to saturate the solution; the solution then is extracted three times with 80% ethyl acetate-hexane. The solvent is evaporated under nitrogen, dissolved in 200 μl of 80% ethyl acetate-hexane, and the 200 μl sample then transferred to 2 ml screw cap vials. Samples are stored at −20° C. until they are run on an HPLC column.
For HPLC, samples are run on a Beckman Ultrasphere ODS analytical C18 HPLC column (5μ, 4.6 mm×25 cm) at 1 ml/min using either 60:40:0.1 or 70:30:0.1 methanol:water:acetic acid as solvent. Absorbance is monitored at 210 nm.

eyelashes [2] = assay: Use for restoring eyelashes: transparent gel applied nightly at the skin-eyelash border, volunteers; format: in vivo, human
Description: In one embodiment, the composition of the present invention is a transparent gel formulated according to Table 2. The formulation comprises water, at least one prostaglandin analog according to the present invention (concentration about 0.001% to about 0.05% w/w of the composition); a thickener, optionally a hair stimulating agent; caffeine, and at least one penetrating agent and the pH adjusted to 7.2. The gel is applied as a fine line at the skin-eyelash border every night on clean dry eyes. The gel is aqueous enough to spread to the hair follicles but thick enough not to drip.
In another embodiment, the composition is a transparent gel formulated to comprise at least one of 16-phenoxy PGF2α cyclopropyl amide; 17-phenyl trinor PGF2α cyclopropyl amide; 16-phenoxy PGF2α cyclopropyl methyl amide; or 17-phenyl trinor PGF2α cyclopropyl methyl amide (concentration about 0.001% to about 0.05% w/w of the composition) plus the following ingredients (Table 3):
(§1) Test formulations contained either 0.025% or 0.05% 16-phenoxy PGF2α cyclopropyl amide. The formulation containing 0.025% 16-phenoxy PGF2α cyclopropyl amide was used on the left side, and the formulation containing 0.05% 16-phenoxy PGF2α cyclopropyl amide was used on the right side. Test formulations were given randomly to volunteers without consideration of coloration of eyelashes, race, ethnicity or sex.

eyebrows = assay: Use for restoring eyebrows: transparent gel applied nightly at the browbone, volunteers; format: in vivo, human
Description: A composition prepared according to the present invention is formulated as a transparent gel as described in the two described embodiments of Example 2. The formulation comprises water, at least one prostaglandin analog according to the present invention (concentration about 0.001% to about 0.05% w/w of the composition); a thickener, optionally a hair stimulating agent; caffeine, and at least one penetrating agent and the pH adjusted to 7.2. The gel is applied by brush as a line at the browbone every night on clean, oil-free brows in the absence of makeup. The gel is sufficiently aqueous to spread to the hair follicles but thick enough not to drip.
as §1

eyelashes [3] = details: background statement; cited from earlier work
[4] = 0.025% formulation left, 0.05% right
[5] = gel 0.025% / 0.05% nightly, single subject

With O=C(CCC/C=C\C[C@@H]1[C@@H](/C=C/[C@@H](O)COc2ccccc2)[C@H](O)C[C@@H]1O)NC1CC1 [16-phenoxy PGF2α cyclopropyl amide, 16-phenoxy tetranor PGF2α cyclopropyl amide] the “% Hydrolyzed after 12 hr (negative control)” value [1] was 0%, the “% Hydrolyzed after 12 hr, Avg” value [1] was 1.78% and the “% Hydrolyzed after 12 hr” value [1] was 2.0% and 1.89% and 1.44%. For the same compound, the “left side (0.025%) versus right side (0.05%), eyelashes” value (eyelashes [2]; [4]) was “no significant difference; also recorded: Right side was faster to grow; also recorded: Subject thought right side was better; also recorded: Subject thought left side was better”, the “increase in eyelash length” value (eyelashes [2]; gel 0.025% (left) / 0.05% (right) nightly, single subject, final result or time not given) was “about 55% and approximately 80% and approximately 45% and 50% and 45% and approximately 60% and 100% and 45-50%” and the “eyelash appearance (in words)” value (eyelashes [2]; [5]) was “darker, fuller and showed an upward curving angle of growth; also recorded: much thicker, fuller, longer and curvier than before use; also recorded: Lashes grew so much that by week 4 the test was discontinued because eyelashes were too long; also recorded: darker, fuller, and longer; also recorded: thicker and darker and curled upwards; also recorded: much thicker after 2 weeks; also recorded: much darker, thicker; also recorded: darker, and curved upwards; also recorded: longer, thicker and darker; also recorded: bushy, very thick, dark; also recorded: eyelashes had grown to the point of clear visibility below lids; also recorded: darker, thicker and lashes curled up; also recorded: darker and more upturned; also recorded: Noticeable improvement after 4 weeks even without mascara”. The “time by which increase in eyelash length / growth was obvious” value (eyelashes [2]; [5]) was “about 3 weeks and ≤ 3 weeks and ≤ 2 weeks”, the “time to some thickening of eyelashes” value (eyelashes [2]; [5]) was at most 10 days and the “increase in eyelash length” value (eyelashes [2]; gel 0.025% / 0.05% nightly, single subject, 3 weeks) was 40% and 30%. The “increase in eyelash length” value (eyelashes [2]; gel 0.025% / 0.05% nightly, single subject, 4 weeks) was “about 50% and 50% and approximately 60%”, the “increase in eyelash length” value (eyelashes [2]; gel 0.025% / 0.05% nightly, single subject, 5 weeks) was “Approximately 60%; also recorded: about 100%; also recorded: approximately 45%” and the “increase in eyelash length” value (eyelashes [2]; gel 0.025% / 0.05% nightly, single subject, 6 weeks) was 100% and ~45% and 50%. The “increase in eyelash length” value (eyelashes [2]; gel 0.025% / 0.05% nightly, single subject, after two months) was “approximately 55%”, the “increase in numbers of eyelashes” value (eyelashes [2]; gel 0.025% / 0.05% nightly, single subject, final or peak result) was 60% and 30% and 50% and the “increase in eyelash thickness” value (eyelashes [2]; gel 0.025% / 0.05% nightly, single subject, final result) was “approximately doubled and approximately 60% and 100% and ~100%”. The “tolerability of the product” value (eyelashes [2]; subjects with dry eye) was “tolerated the product well”, the “left side (0.025%) versus right side (0.05%), eyebrows” value (eyebrows; [4]) was “no significant difference” and the “eyebrow hair result (in words)” value (eyebrows; gel 0.025% (left) / 0.05% (right) nightly, single subject) was “noticeable increase in number of hairs and color after 2 weeks; also recorded: Hairs started to fill in”.
In the case of O=C(CCC/C=C\C[C@@H]1[C@@H](/C=C/[C@@H](O)COc2ccccc2)[C@H](O)C[C@@H]1O)NCC1CC1 [16-phenoxy tetranor PGF2α cyclopropyl methyl amide], the “% Hydrolyzed after 12 hr (negative control)” value [1] is reported as 0%, the “% Hydrolyzed after 12 hr, Avg” value [1] is reported as 1.22% and the “% Hydrolyzed after 12 hr” value [1] is reported as 1.28% and 1.18% and 1.2%.
For O=C(CCC/C=C\C[C@@H]1[C@@H](/C=C/[C@@H](O)CCc2ccccc2)[C@H](O)C[C@@H]1O)NCC1CC1 [17 phenyl trinor PGF2α cyclopropyl methyl amide], the “% Hydrolyzed after 12 hr (negative control)” value [1] was 0%, the “% Hydrolyzed after 12 hr, Avg” value [1] was 0.91% and the “% Hydrolyzed after 12 hr” value [1] was 0.83% and 0.8% and 1.1%.
In the case of O=C(CCC/C=C\C[C@@H]1[C@@H](/C=C/[C@@H](O)CCc2ccccc2)[C@H](O)C[C@@H]1O)NC1CC1 [17-phenyl trinor PGF2α cyclopropyl amide, 17 phenyl trinor PGF2α cyclopropylamide], the “% Hydrolyzed after 12 hr (negative control)” value [1] is reported as 0%, the “% Hydrolyzed after 12 hr, Avg” value [1] is reported as 1.82% and the “% Hydrolyzed after 12 hr” value [1] is reported as 1.31% and 2.0% and 2.15%.
In the case of CCNC(=O)CCC/C=C\C[C@@H]1[C@@H](/C=C/[C@@H](O)CCc2ccccc2)[C@H](O)C[C@@H]1O [Bimatoprost, cyclopentane N-ethyl heptenamide-5-cis-2-(3α-hydroxy-5-phenyl-1-trans-pentenyl)-3,4-dihydroxy, [1α, 2β, 3α, 5α]], the “effect on eyelash growth (in words)” value (eyelashes [3]) is listed as “effective to increase the growth of eyelashes”, the incidence of hyperemia (eyelashes [3]) is listed as “highest incidence of hyperemia” and the negative side effects (eyelashes [3]) is listed as “redness and discoloration along the periocular skin; eye irritation; and foreign body sensation”.
In the case of CC(C)OC(=O)CCC/C=C\C[C@@H]1[C@@H](CC[C@@H](O)CCc2ccccc2)[C@H](O)C[C@@H]1O [Latanoprost], the “effect on eyelash growth (in words)” value (eyelashes [3]) is given as “works poorly on eyelashes”.
In the case of CC(C)OC(=O)CCC/C=C\C[C@@H]1[C@@H](/C=C/[C@@H](O)COc2cccc(C(F)(F)F)c2)[C@H](O)C[C@@H]1O [Travaprost, isopropyl (Z)-7-[(1R,2R,3R,5S)-3,5-dihydroxy-2-[(1E,3R)-3-hydroxy-4-[(α,α,α-trifluoro-m-tolyl)oxy]-1-butenyl]cyclopentyl]-5-heptenoate], the “effect on eyelash growth (in words)” value (eyelashes [3]) is listed as “does not work well for eyelash growth, taking longer than other like products”.
